Laboratory results: patent publication US20160145267A1, “HETEROARYL SUBSTITUTED PYRAZOLES” (BAYER PHARMA AKTIENGESELLSCHAFT, priority 2013, published 2016)
Like-named read-outs stand apart in the source and are kept apart here.

Key:
[1] = system: HeLa cell line; assay: Proliferation assay (HeLa cell line); type: cell-based; settings: Homo sapiens, 96 h, read-out: Biological Assay 2: Proliferation assay (HeLa cell line) median IC50
Experimental: Cultivated tumor cells (cells were ordered from ATCC, except HeLa-MaTu and HeLa-MaTu-ADR, which were ordered from EPO-GmbH, Berlin) were plated at a density of 1000 to 5000 cells/well, depending on the growth rate of the respective cell line, in a 96-well multititer plate in 200 μL of their respective growth medium supplemented 10% fetal calf serum. After 24 hours, the cells of one plate (zero-point plate) were stained with crystal violet (see below), while the medium of the other plates was replaced by fresh culture medium (200 μL), to which the test substances were added in various concentrations (0 μM, as well as in the range of 0.001-10 μM; the final concentration of the solvent dimethyl sulfoxide was 0.5%). The cells were incubated for 4 days in the presence of test substances. Cell proliferation was determined by staining the cells with crystal violet: the cells were fixed by adding 20 μL/measuring point of an 11% glutaric aldehyde solution for 15 minutes at room temperature. After three washing cycles of the fixed cells with water, the plates were dried at room temperature. The cells were stained by adding 100 μL/measuring point of a 0.1% crystal violet solution (pH 3.0). After three washing cycles of the stained cells with water, the plates were dried at room temperature. The dye was dissolved by adding 100 μl/measuring point of a 10% acetic acid solution. Absorbtion was determined by photometry at a wavelength of 595 nm. The change of cell number, in percent, was calculated by normalization of the measured values to the absorbtion values of the zero-point plate (=0%) and the absorbtion of the untreated (0 μm) cells (=100%). The IC50 values were determined by means of a 4 parameter fit.

[2] = target: T1, catalytic domain of human Bub1 (amino acids 704-1085) (Homo sapiens, UniProt O43683); assay: Bub1 kinase assay (TR-FRET); type: biochemical
T1 construct: catalytic domain of human Bub1 (amino acids 704-1085); His6 (N); made in house; host or cells: Hi5 insect cells
Experimental: To this end, 100-fold concentrated compound solutions (in DMSO) were previously prepared by serial dilution (1:3.4) of 2 mM stocks in a clear low volume 384-well source microtiter plate (Greiner Bio-One, Frickenhausen, Germany), from which 50 nL of compounds were transferred into a black low volume test microtiter plate from the same supplier. […] The resulting mixture (5 μL final volume) was incubated at 22° C. during 60 min., and the reaction was stopped by the addition of 5 μL of an aqueous EDTA-solution (50 mM EDTA, in 100 mM HEPES pH 7.5 and 0.2% (w/v) bovine serum albumin) which also contained the TR-FRET detection reagents (0.2 μM streptavidin-XL665 [Cisbio Bioassays, Codolet, France] and 1 nM anti-phoshoSerine antibody [Merck Millipore, cat. #35-001] and 0.4 nM LANCE EU-W1024 labeled anti-mouse IgG antibody [Perkin-Elmer, product no. AD0077, alternatively a Terbium-cryptate-labeled anti-mouse IgG antibody from Cisbio Bioassays can be used]). The stopped reaction mixture was further incubated 1 h at 22° C. in order to allow the formation of complexes between peptides and detection reagents. Subsequently, the amount of product was evaluated by measurement of the resonance energy transfer from the Eu-chelate-antibody complex recognizing the Phosphoserine residue to the streptavidin-XL665 bound to the biotin moiety of the peptide.

[3] = 10 μM ATP, 1 μM peptide substrate, TR-FRET, read-out: Biological Assay 1: Bub1 kinase assay median IC50
[4] = 4 days incubation, crystal violet staining

T1 sequence (O43683 704-1085): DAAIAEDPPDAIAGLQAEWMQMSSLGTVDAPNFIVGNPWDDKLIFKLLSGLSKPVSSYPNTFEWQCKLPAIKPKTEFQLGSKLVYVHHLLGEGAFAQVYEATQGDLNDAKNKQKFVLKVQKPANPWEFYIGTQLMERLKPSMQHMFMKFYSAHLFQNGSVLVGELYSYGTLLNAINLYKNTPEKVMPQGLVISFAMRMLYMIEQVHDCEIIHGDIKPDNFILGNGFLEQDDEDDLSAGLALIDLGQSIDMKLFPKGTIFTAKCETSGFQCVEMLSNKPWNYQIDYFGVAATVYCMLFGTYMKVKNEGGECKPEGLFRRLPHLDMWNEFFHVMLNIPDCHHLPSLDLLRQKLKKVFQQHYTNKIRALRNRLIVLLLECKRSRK

| SMILES | IC50 [1] | IC50 [2, 3] | IC50 [1, 4] | IC50 [2] |
| --- | --- | --- | --- | --- |
| CCOc1cc(F)c(Cn2nc(-c3nc(NC(=O)NC4CCCCC4)c(N4CCOCC4)c(Nc4ccncn4)n3)c(C)c2C2CC2)c(F)c1 [Example 2-1-21, 1-cyclohexyl-3-{2-[5-cyclopropyl-1-(4-ethoxy-2,6-difluorobenzyl)-4-methyl-1H-pyrazol-3-yl]-5-(morpholin-4-yl)-6-(pyrimidin-4-ylamino)pyrimidin-4-yl}urea] | 7400 nM | 1400 nM |  |  |
| CCOc1cc(F)c(Cn2nc(-c3nc(Nc4ccncc4)c(NS(=O)(=O)CC)c(Nc4ccncc4)n3)c(C)c2C2CC2)c(F)c1 [Example 2-2-17, N-{2-[5-cyclopropyl-1-(4-ethoxy-2,6-difluorobenzyl)-4-methyl-1H-pyrazol-3-yl]-4,6-bis(pyridin-4-ylamino)pyrimidin-5-yl}ethanesulfonamide] | > 10000 nM | 760 nM |  |  |
| CCOc1cc(F)c(Cn2nc(-c3nc(NC(=O)NC4CCCCC4)c(OC)c(Nc4ccncc4)n3)c(C)c2C2CC2)c(F)c1 [Example 2-1-16, 1-cyclohexyl-3-{2-[5-cyclopropyl-1-(4-ethoxy-2,6-difluorobenzyl)-4-methyl-1H-pyrazol-3-yl]-5-methoxy-6-(pyridin-4-ylamino)pyrimidin-4-yl}urea] |  |  | 3300 nM | 340 nM |
| CCOc1cc(F)c(Cn2nc(-c3nc(N)c(NS(=O)(=O)C(F)(F)F)c(Nc4ccncc4)n3)c(C)c2C2CC2)c(F)c1 [Example 2-1-31, N-{4-amino-2-[5-cyclopropyl-1-(4-ethoxy-2,6-difluorobenzyl)-4-methyl-1H-pyrazol-3-yl]-6-(pyridin-4-ylamino)pyrimidin-5-yl}-1,1,1-trifluoromethanesulfonamide] | 10000 nM | 9.8 nM |  |  |
| CCOc1cc(F)c(Cn2nc(-c3nc(Nc4ccncn4)c(NC(=O)COC)c(Nc4ccncn4)n3)c(C)c2C2CC2)c(F)c1 [Example 2-2-15, N-{2-[5-cyclopropyl-1-(4-ethoxy-2,6-difluorobenzyl)-4-methyl-1H-pyrazol-3-yl]-4,6-bis(pyrimidin-4-ylamino)pyrimidin-5-yl}-2-methoxyacetamide] |  |  | 4700 nM | 42 nM |
| CCOc1cc(F)c(Cn2nc(-c3nc(Nc4ccncc4)c(NS(=O)(=O)C(F)(F)F)c(Nc4ccncc4)n3)c(C)c2C2CC2)c(F)c1 [Example 2-2-18, N-{2-[5-cyclopropyl-1-(4-ethoxy-2,6-difluorobenzyl)-4-methyl-1H-pyrazol-3-yl]-4,6-bis(pyridin-4-ylamino)pyrimidin-5-yl}-1,1,1-trifluoromethanesulfonamide] | 3000 nM | 13000 nM |  |  |
| C=CC(=O)Nc1cc(Nc2ccncc2)nc(-c2nn(Cc3c(F)cc(OCC)cc3F)c(C3CC3)c2C)n1 [Example 2-1-22, N-{2-[5-cyclopropyl-1-(4-ethoxy-2,6-difluorobenzyl)-4-methyl-1H-pyrazol-3-yl]-6-(pyridin-4-ylamino)pyrimidin-4-yl}prop-2-enamide] |  |  | 9800 nM | 59 nM |
| CCOc1cc(F)c(Cn2nc(-c3nc(N)c(OCCOC)c(Nc4ccncn4)n3)c(C)c2C2CC2)c(F)c1 [Example 2-1-26, 2-[5-cyclopropyl-1-(4-ethoxy-2,6-difluorobenzyl)-4-methyl-1H-pyrazol-3-yl]-5-(2-methoxyethoxy)-N-(pyrimidin-4-yl)pyrimidine-4,6-diamine] |  |  | 4200 nM | 9.2 nM |
| CCNC(=O)Nc1nc(-c2nn(Cc3c(F)cc(OCC)cc3F)c(C3CC3)c2C)nc(Nc2ccncn2)c1N1CCOCC1 [Example 2-1-19, 1-{2-[5-cyclopropyl-1-(4-ethoxy-2,6-difluorobenzyl)-4-methyl-1H-pyrazol-3-yl]-5-(morpholin-4-yl)-6-(pyrimidin-4-ylamino)pyrimidin-4-yl}-3-ethylurea] | 5600 nM | 2100 nM |  |  |
| CCOc1cc(F)c(Cn2nc(-c3nc(N)cc(Nc4ccnc(OC)c4)n3)c(C)c2C2CC2)c(F)c1 [Example 2-1-2, 2-[5-cyclopropyl-1-(4-ethoxy-2,6-difluorobenzyl)-4-methyl-1H-pyrazol-3-yl]-N-(2-methoxypyridin-4-yl)pyrimidine-4,6-diamine] | 7500 nM | 260 nM |  |  |

Now from value to compound:

| IC50 [1] | IC50 [2, 3] | IC50 [1, 4] | IC50 [2] | SMILES |
| --- | --- | --- | --- | --- |
|  |  | 10000 nM | 290 nM | CCNC(=O)Nc1nc(-c2nn(Cc3c(F)cc(OCC)cc3F)c(C3CC3)c2C)nc(Nc2ccncc2)c1N1CCOCC1 [Example 2-1-18, 1-{2-[5-cyclopropyl-1-(4-ethoxy-2,6-difluorobenzyl)-4-methyl-1H-pyrazol-3-yl]-5-(morpholin-4-yl)-6-(pyridin-4-ylamino)pyrimidin-4-yl}-3-ethylurea] |
| 2800 nM | 350 nM |  |  | CCOc1cc(F)c(Cn2nc(-c3nc(Nc4ccncc4)c(NC(=O)COC)c(Nc4ccncc4)n3)c(C)c2C2CC2)c(F)c1 [Example 2-2-14, N-{2-[5-cyclopropyl-1-(4-ethoxy-2,6-difluorobenzyl)-4-methyl-1H-pyrazol-3-yl]-4,6-bis(pyridin-4-ylamino)pyrimidin-5-yl}-2-methoxyacetamide] |
| 3100 nM | 6.3 nM |  |  | CCOc1cc(F)c(Cn2nc(-c3nc(N)cc(Nc4ccncn4)n3)c(C)c2C2CC2)c(F)c1 [Example 2-1-3, 2-[5-cyclopropyl-1-(4-ethoxy-2,6-difluorobenzyl)-4-methyl-1H-pyrazol-3-yl]-N-(pyrimidin-4-yl)pyrimidine-4,6-diamine] |
| > 10000 nM | 180 nM |  |  | CCOc1cc(F)c(Cn2nc(-c3nc(Nc4ccncn4)c(OC)c(Nc4ccncn4)n3)c(C)c2C2CC2)c(F)c1 [Example 2-2-5, 2-[5-cyclopropyl-1-(4-ethoxy-2,6-difluorobenzyl)-4-methyl-1H-pyrazol-3-yl]-5-methoxy-N,N′-di(pyrimidin-4-yl)pyrimidine-4,6-diamine] |
| 3000 nM | 10 nM |  |  | CCOc1cc(F)c(Cn2nc(-c3nc(N)c(OCCOC)c(Nc4ccncc4)n3)c(C)c2C2CC2)c(F)c1 [Example 2-1-25, 2-[5-cyclopropyl-1-(4-ethoxy-2,6-difluorobenzyl)-4-methyl-1H-pyrazol-3-yl]-5-(2-methoxyethoxy)-N-(pyridin-4-yl)pyrimidine-4,6-diamine] |
| 2200 nM | 150 nM |  |  | CCNC(=O)Nc1c(Nc2ccncc2)nc(-c2nn(Cc3c(F)cc(OCC)cc3F)c(C3CC3)c2C)nc1Nc1ccncc1 [Example 2-2-16, 1-{2-[5-cyclopropyl-1-(4-ethoxy-2,6-difluorobenzyl)-4-methyl-1H-pyrazol-3-yl]-4,6-bis(pyridin-4-ylamino)pyrimidin-5-yl}-3-ethylurea] |
| 3500 nM | 4.8 nM |  |  | CCOc1cc(F)c(Cn2nc(-c3nc(N)c(OC)c(Nc4ccncc4)n3)c(C)c2C2CC2)c(F)c1 [Example 2-1-4, 2-[5-cyclopropyl-1-(4-ethoxy-2,6-difluorobenzyl)-4-methyl-1H-pyrazol-3-yl]-5-methoxy-N-(pyridin-4-yl)pyrimidine-4,6-diamine] |
| 5300 nM | 9.8 nM |  |  | CCOc1cc(F)c(Cn2nc(-c3nc(N)c(N4CCOCC4)c(Nc4ccncn4)n3)c(C)c2C2CC2)c(F)c1 [Example 2-1-7, 2-[5-cyclopropyl-1-(4-ethoxy-2,6-difluorobenzyl)-4-methyl-1H-pyrazol-3-yl]-5-(morpholin-4-yl)-N-(pyrimidin-4-yl)pyrimidine-4,6-diamine] |
| > 10000 nM | 16 nM |  |  | CCOc1cc(F)c(Cn2nc(-c3nc(N)c(NC(=O)COC)c(Nc4ccncc4)n3)c(C)c2C2CC2)c(F)c1 [Example 2-1-27, N-{4-amino-2-[5-cyclopropyl-1-(4-ethoxy-2,6-difluorobenzyl)-4-methyl-1H-pyrazol-3-yl]-6-(pyridin-4-ylamino)pyrimidin-5-yl}-2-methoxyacetamide] |
|  |  | 6000 nM | 12 nM | CCOc1cc(F)c(Cn2nc(-c3nc(N)nc(Nc4ccncn4)n3)c(C)c2C2CC2)c(F)c1 [Example 2-1-9, 6-[5-cyclopropyl-1-(4-ethoxy-2,6-difluorobenzyl)-4-methyl-1H-pyrazol-3-yl]-N-(pyrimidin-4-yl)-1,3,5-triazine-2,4-diamine] |
